The source of these data is patent publication US20200407382A1, “POLYMORPHIC FORMS OF (9-[(R)-2-[[(S)-[[(S)-1-(ISOPROPOXYCARBONYL)ETHYL]AMINO]PHENOXY PHOSPHINYL]METHOXY]PROPYL] ADENINE AND PHARMACEUTICALLY ACCEPTABLE SALTS THEREOF” (CIPLA LIMITED, priority 2017, published 2020).

How the values of this data set were obtained:
FIG. 10 illustrates a dynamic vapor sorption (DVS) isotherm profile of Form C4 of (9-[(R)-2-[[(S)-[[(S)-1-(isopropoxycarbonyl)ethyl]amino] phenoxyphosphinyl] methoxy]propyl] adenine hemifumarate , according to another embodiment. For the DVS measurement a sample of crystalline Form C4 was cycled through changing humidity conditions to determine its hygroscopicity. The sample was analyzed using a Surface Measurement System DVS-1 Dynamic Vapor Sorption System. About 100 mg of crystalline Form C4 was placed into a mesh vapor sorption balance pan and loaded into a dynamic vapor sorption balance as part of the
Surface Measurement System. Data was collected in 1-minute intervals. Nitrogen was used as the carrier gas. The sampled crystalline Form C4 was subjected to a ramping profile from 0-95% relative humidity (RH) at 5 and 10% increments, maintaining the sample at each step until a stable weight had been achieved (99.5% step completion). After completion of the Sorption cycle, the sample was dried using the same procedure, but all the way down to 95% RH to 30% RH (10% RH interval) and from 30% RH to 5% RH (5% RH interval). The weight change during the Sorption/desorption cycles were plotted, allowing for the hygroscopic nature of the sample to be determined.
• 1. The hygroscopicity was studied at 25° C. using an SMS DVS intrinsic analyser. • 2. About 100 mg of sample was placed in a tared sample holder at an initial ambient room humidity. • 3. A total wet/dry nitrogen flow rate of 270 cc/min was used throughout the study. • 4. Solids were studied by performing one full cycle of the following program: 300 minutes of drying at 25° C. under dry N2, followed by settings of 0, 5, 10, 15, 20, 25, 30, 40, 50, 60, 70, 80, 90 and 95% RH, with exposure time at each humidity set point dependent upon 99.5% confidence in the F1 fit model or 60 minutes. The maximum time allowed at any one humidity set point was 60 minutes. Followed by decreasing 95% RH to 30% RH (10% RH interval) and from 30% RH to 5% RH (5% RH interval). […]. The sample was maintained under dry N2 after the cycle was completed. • 5. Percent weight gain was calculated based on the dry weight basis.

For `CC(C)OC(=O)[C@H](C)N[P@](=O)(CO[C@H](C)Cn1cnc2c(N)ncnc21)Oc1ccccc1` [Form C4, (9-[(R)-2-[[(S)-[[(S)-1-(isopropoxycarbonyl)ethyl]amino]phenoxyphosphinyl]methoxy]propyl]adenine hemifumarate], under “25° C., 0-95% RH sorption/desorption cycles”, the “hygroscopicity (DVS isotherm)” value is “non-hygroscopic”. The “hysteresis between sorption and desorption cycles” value (DVS, 0-95% RH) was “very small hysteresis”. The “change of crystalline form during DVS (XRPD post DVS vs pre-DVS)” value (XRPD pattern post DVS analysis compared with FIG. 4) was “no change in the crystalline Form C4”. Also, the “increase in mass during the Sorption cycle” value (between 0% and 95% RH, 25° C.) is “about 1.7%”.
